pIC50: −log10 of the molar value.
Assays:
Assay type in all cases: biochemical
[1] = molecular target: recombinant human G6PD (HsG6PD) (Homo sapiens, UniProt P11413); test: Inhibition of recombinant human G6PD by the selected compounds; settings: compound 400 μM
Text: (§1) Here, we tested an in-house library of 55 compounds with some structural similarity to the previously reported molecules by Preuss et al.. […] In addition, we tested these synthetic compounds as potential recombinant human G6PD (HsG6PD) protein inhibitors. We observed that synthetic compounds, such as JMM-2, CNZ-3, CNZ-7, and CNZ-8, inhibited the fused TvG6PD::6PGL and the HsG6PD enzymes. For example, JMM-2 inhibited both enzymes by 81%, and CNZ-3 inhibited their catalytic activity by around 90%. Conversely, six of them, JMM-3, CNZ-16, CNZ-17, MCC-7, CMC-1, and TDA-5, inhibited the fused TvG6PD::6PGL enzyme activity in a more significant proportion regarding HsG6PD. […] The selective inhibition over the fused TvG6PD::6PGL enzyme may help improve the rational design of new drugs against this parasite without affecting the activity of HsG6PD.

[2] = molecular target: T1, fused TvG6PD::6PGL enzyme (Trichomonas vaginalis, UniProt A2EC78); test: Orthogonal assay: IC50 by residual activity of TvG6PD::6PGL
T1 sequence (A2EC78 entry or part of it): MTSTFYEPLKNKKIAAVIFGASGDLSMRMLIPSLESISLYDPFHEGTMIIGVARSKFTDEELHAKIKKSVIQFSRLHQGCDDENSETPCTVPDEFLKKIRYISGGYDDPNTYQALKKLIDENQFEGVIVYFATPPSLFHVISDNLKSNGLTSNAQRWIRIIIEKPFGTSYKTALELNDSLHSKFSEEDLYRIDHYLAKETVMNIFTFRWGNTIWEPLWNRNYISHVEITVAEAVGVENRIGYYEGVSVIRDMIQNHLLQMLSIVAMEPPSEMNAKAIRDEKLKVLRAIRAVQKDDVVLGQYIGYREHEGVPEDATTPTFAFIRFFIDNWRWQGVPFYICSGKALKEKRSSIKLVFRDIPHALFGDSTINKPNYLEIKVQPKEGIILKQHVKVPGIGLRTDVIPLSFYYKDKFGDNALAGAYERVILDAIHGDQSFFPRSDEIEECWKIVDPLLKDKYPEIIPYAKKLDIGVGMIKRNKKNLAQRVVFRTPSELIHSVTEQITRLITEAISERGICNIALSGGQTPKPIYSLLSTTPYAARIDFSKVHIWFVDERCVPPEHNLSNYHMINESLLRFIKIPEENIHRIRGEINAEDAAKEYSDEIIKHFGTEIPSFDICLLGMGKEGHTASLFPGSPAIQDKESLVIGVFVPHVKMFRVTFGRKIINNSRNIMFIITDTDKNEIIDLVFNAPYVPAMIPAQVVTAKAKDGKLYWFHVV
Description: Figure 2 Inactivation of the TvG6PD::6PGL enzyme with CNZ-3, MCC-7, JMM-3, and CNZ-17. The protein was adjusted at 0.2 mg/mL and incubated with increasing concentrations of each compound (0–800 μM) for 2 h at 37 °C. The IC50 values were determined by plotting the residual activity of the fused TvG6PD::6PGL enzyme versus compound concentrations. The assays were carried out in triplicate, and the data represent the mean ± standard error.
The compound concentration at which the enzyme loses 50% of its initial activity (IC50) was determined according to Hernández-Ochoa et al.. The G6PD::6PGL protein was adjusted to a 0.2 mg/mL concentration and incubated for 2 h at 37 °C, with increasing concentrations from 0 to 800 µM of the selected synthetic hit compounds. Then, the residual activity was measured, as mentioned above.

[3] = molecular target: T1, fused TvG6PD::6PGL enzyme; test: Time-course inactivation, second-order rate constant (k2); settings: read-out: second-order rate constant of inactivation (k2)
Description: To determine the enzyme–inhibitor complex formation rate for each synthetic compound, we first calculated the pseudo-first-order inactivation constants (k1) by measuring the initial velocities at five fixed concentrations, at intervals between 0 and 120 min. […] We observed single-exponential decays of time-course inactivation for all the compounds examined in this study (Figure 3A,C,E,G). Additionally, as the synthetic compounds’ concentrations increased, the enzyme lost catalytic activity in a shorter incubation time; in contrast, the enzymatic activity of enzymes without compounds remained intact. The k1 values for each compound were calculated and plotted against their concentrations, and a linear behavior was obtained and fitted with the linear equation (Figure 3B,D,F,H). The calculated k2 values for JMM-3, CNZ-3, CNZ-17, and MCC-7 were: 0.33, 0.66, 0.38, and 0.26 M^−1 s^−1, respectively. It is important to mention that CNZ-3 formed the enzyme–inhibitor complex faster (k2 value of 0.66 M^−1 s^−1), regarding the CNZ-17 compound. This difference in the affinity to form the enzyme–inhibitor complex may be due to the p-chlorine moiety present in CNZ-3, unlike CNZ-17, which has a methoxy group in the same position.
Figure 3 Inactivation of fused G6PD::6PGL enzyme by chemical compounds. […] We obtained second-order rate constant values of inactivation (k2) of each of (B) JMM-3, (D) CNZ-3, (F) CNZ-17, and (H) CCM-7 by fitting the calculated k1 value versus the concentration of the compound. […] TEXT PRINTED IN THE PICTURE: (B) JMM-3: k2= 0.33 (M^-1* s^-1) | (D) CNZ-3: k2 = 0.66 (M^-1* s^-1) | (F) CNZ-17: k2 = 0.38 (M^-1* s^-1) | (H) MCC-7: k2 = 0.26 (M^-1* s^-1) DOUBTS OF THE COPYIST ABOUT THIS PICTURE: CNZ-3, k2: small print, 0.66 could be 0.68 or 0.86 / CNZ-17, k2: small print, 0.38 could be 0.36 or 0.88 / MCC-7, k2: small print, 0.26 could be 0.28; subscript of k not clearly readable / Panels D, F, H: the sign between M^-1 and s^-1 (asterisk) is not clearly readable
Second-order rate constants of inactivation (k2) were used to determine the inactivation rate of a chemical compound and the formation of the enzyme–inhibitor complex. Therefore, pseudo-first-order rate constants (k1) were determined for the recombinant G6PD::6PGL, adjusted at 0.2 mg/mL, and incubated with four different fixed concentrations of each compound at 37 °C. At the indicated times, a sample was withdrawn, and the residual activity was measured. First, we calculated the pseudo-first-order rate constants (k1) by fitting the residual activities data using a monoexponential decay equation: AR=A0 e^−kt , where AR is the residual activity at time t, A0 is the activity at the initial time, and k is the pseudo-first-order inactivation constant (min^−1). […]

[4] = molecular target: T1, fused TvG6PD::6PGL enzyme; test: Determination of inhibition type (double reciprocal plots); settings: Lineweaver–Burk; for inhibition type for G6P substrate: G6P varied, NADP+ saturating; for inhibition type for NADP+ substrate: NADP+ varied, G6P saturating
Text: Figure 4 Determination of inhibition type of selected compounds. Lineweaver–Burk plots for the JMM-3, CNZ-3, CNZ-17, and MCC-7 compounds with G6P (A,C,E,G) or NADP^+ (B,D,F,H) substrates. The data represent the mean ± of three independent experiments, and standard errors were lower than 5%. […] Only the inhibition type (a class) is printed as a plot label, and it is uncertain whether that counts as a result. The concentrations in the plot legends stand alone and were left out.
To determine the inhibition mechanism of the four selected hit compounds over the T. vaginalis-fused G6PD::6PGL protein, we monitored the initial velocities in the presence of two fixed concentrations of each of the inhibitory compounds. The initial velocities were determined at different substrate concentrations (from 0 to 140 µM). […] Subsequently, the initial velocities for each physiological substrate (G6P and NADP^+) were analyzed using the double reciprocal plot method.

[5] = molecular target: T1, fused TvG6PD::6PGL enzyme; test: Screening of in-house library for inhibition of fused TvG6PD::6PGL catalytic activity; settings: read-out: G6PD::6PGL Inhibition (%), compound 400 μM, 0.2 mg/mL enzyme, 2 h at 37 °C
Text: as §1
We tested an in-house library of 55 chemical compounds synthesized in the Medicinal Chemistry Laboratory from Facultad de Farmacia, Universidad Autónoma del Estado de Morelos. In-house libraries are advantageous in the discovery of novel bioactive small molecules. […] Subsequently, the residual activity was measured using a standard reaction mixture (1 mM G6P, 0.2 mM NADP^+, 0.1 mM Tris-HCl, and one mM MgCl2, pH 8.0). […]

recombinant human G6PD (HsG6PD), sequence (P11413 whole entry, the tested form may be a part): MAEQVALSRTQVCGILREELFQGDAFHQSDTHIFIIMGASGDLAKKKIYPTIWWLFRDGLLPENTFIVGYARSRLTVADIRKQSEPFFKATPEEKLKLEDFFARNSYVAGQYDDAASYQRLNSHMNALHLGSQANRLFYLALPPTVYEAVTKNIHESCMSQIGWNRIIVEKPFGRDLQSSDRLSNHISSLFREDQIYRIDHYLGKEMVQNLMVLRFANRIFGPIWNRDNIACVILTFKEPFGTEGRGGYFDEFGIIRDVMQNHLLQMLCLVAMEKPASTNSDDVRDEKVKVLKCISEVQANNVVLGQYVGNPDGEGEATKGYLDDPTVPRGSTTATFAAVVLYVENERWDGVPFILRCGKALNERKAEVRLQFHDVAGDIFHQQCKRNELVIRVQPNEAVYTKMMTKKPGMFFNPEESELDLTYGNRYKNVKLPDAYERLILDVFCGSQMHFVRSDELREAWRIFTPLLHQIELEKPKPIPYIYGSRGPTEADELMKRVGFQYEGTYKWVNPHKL

SMILES	inhibition at 400 µM [1] [%]	pIC50 [2]	kinact/KI [3] [M⁻¹ s⁻¹]	inhibition type for G6P substrate [4]	inhibition type for NADP+ substrate [4]	inhibition at 400 µM [5] [%]
O=C(Nc1ccc(Cl)cc1)Nc1ncc([N+](=O)[O-])s1 [CNZ-3]	~90	4.03	0.66	noncompetitive-type inhibition	competitive-type inhibition	–
COc1ccc(NC(=O)Nc2ncc([N+](=O)[O-])s2)cc1 [CNZ-17]	0	3.45	0.38	uncompetitive-type inhibition	uncompetitive-type inhibition	> 50
COc1cc(CCC(=O)O)ccc1OCc1ccc(-c2ccccc2C#N)cc1 [JMM-3]	–	3.81	0.33	uncompetitive-type inhibition	uncompetitive-type inhibition	> 50
O=C(COc1ccc(/C=C2\SC(=O)NC2=O)cc1)NC1CCN(Cc2ccccc2)CC1 [MCC-7]	11	3.58	0.26	non-competitive-type inhibition	uncompetitive type	–
